Earlier results as cited in patent US20180353175A1, “Surgical Fastener with Broad Spectrum MMP Inhibitors” (Ethicon LLC, priority 2017, published 2018).
Read-outs that look alike come from different tables or passages of the source. Square brackets hold non-standard residues; d marks the D form. Peptide text beside a SMILES is read from it. * marks the point of attachment. 4Abz = Nc1ccc(C(=O)O)cc1; NHOH = ON*

Key:
MMP2 = molecular target: T1, MMP2 (Homo sapiens, UniProt P08253); conditions: for IC50: read-out: IC50 MMP2
T1 sequence (P08253 110-660): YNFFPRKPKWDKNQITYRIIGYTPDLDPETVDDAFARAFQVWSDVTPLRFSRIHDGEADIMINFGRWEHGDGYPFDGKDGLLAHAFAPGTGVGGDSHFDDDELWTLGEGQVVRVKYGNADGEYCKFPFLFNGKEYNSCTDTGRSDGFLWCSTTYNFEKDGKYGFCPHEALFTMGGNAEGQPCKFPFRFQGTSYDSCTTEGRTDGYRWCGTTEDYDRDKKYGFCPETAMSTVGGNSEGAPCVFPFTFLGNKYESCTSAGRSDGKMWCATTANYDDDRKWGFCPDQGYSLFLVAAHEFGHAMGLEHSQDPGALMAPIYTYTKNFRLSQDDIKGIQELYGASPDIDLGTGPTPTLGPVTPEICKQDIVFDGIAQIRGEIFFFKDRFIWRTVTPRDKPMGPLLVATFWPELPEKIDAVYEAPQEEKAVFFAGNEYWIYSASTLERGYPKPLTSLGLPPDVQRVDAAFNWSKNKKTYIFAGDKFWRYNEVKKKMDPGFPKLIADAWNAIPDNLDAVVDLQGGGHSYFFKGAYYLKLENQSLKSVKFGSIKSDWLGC

MMP9 = MMP9 (Homo sapiens, UniProt P14780); conditions: for IC50: read-out: IC50 MMP9
MMP7 = molecular target: T2, MMP7 (Homo sapiens, UniProt P09237); conditions: for IC50: read-out: IC50 MMP7
T2 sequence (P09237 95-267): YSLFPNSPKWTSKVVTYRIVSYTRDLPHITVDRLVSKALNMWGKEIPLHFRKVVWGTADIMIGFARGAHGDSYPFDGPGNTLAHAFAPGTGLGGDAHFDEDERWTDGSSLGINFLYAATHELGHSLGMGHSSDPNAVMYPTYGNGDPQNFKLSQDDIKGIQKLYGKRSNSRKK

MMP3 = MMP3 (Homo sapiens, UniProt P08254)
MMP1 = molecular target: T3, MMP1 (Homo sapiens, UniProt P03956)
T3 sequence (P03956 100-469): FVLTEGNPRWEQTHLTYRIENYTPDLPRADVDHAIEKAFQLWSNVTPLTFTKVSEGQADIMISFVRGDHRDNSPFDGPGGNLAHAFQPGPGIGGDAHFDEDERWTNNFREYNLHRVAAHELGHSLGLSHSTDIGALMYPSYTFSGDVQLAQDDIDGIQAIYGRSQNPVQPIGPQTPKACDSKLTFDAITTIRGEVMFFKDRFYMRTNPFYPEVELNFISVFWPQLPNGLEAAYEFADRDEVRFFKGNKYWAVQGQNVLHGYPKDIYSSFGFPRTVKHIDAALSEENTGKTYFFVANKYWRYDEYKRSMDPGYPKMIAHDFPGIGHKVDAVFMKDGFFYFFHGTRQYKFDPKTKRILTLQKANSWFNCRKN

MMP13 = MMP13 (Homo sapiens, UniProt P45452)
MMP12 = MMP12 (Homo sapiens, UniProt P39900)
MMP14 = MMP14 (Homo sapiens, UniProt P50281)
MMP8 = MMP8 (Homo sapiens, UniProt P22894)
[1] = molecular target: TACE (TNF-α-converting enzyme) (Homo sapiens, UniProt P78536)
[2] = read-out: IC50 MMP8 (converted)

MMP8, sequence (P22894 101-467, species assumed): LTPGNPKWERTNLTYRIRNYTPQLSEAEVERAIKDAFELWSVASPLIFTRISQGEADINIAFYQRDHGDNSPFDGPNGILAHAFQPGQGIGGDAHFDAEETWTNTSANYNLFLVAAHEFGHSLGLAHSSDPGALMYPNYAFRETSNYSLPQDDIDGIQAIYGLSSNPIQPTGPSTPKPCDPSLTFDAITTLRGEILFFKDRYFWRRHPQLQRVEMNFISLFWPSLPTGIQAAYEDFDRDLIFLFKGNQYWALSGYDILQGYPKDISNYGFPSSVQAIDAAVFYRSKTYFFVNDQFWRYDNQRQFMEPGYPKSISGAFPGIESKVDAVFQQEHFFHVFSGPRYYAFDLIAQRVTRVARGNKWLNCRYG
MMP3, sequence (P08254 100-477, species assumed): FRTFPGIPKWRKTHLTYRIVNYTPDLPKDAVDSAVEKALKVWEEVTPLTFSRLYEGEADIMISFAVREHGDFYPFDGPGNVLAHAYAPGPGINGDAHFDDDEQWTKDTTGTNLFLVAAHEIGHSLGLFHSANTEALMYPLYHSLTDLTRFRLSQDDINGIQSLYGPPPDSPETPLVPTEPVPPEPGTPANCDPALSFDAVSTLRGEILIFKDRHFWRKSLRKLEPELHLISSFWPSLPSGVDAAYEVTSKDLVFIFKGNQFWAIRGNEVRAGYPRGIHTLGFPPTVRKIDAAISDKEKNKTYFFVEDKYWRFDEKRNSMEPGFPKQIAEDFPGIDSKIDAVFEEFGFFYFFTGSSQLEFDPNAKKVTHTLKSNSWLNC
MMP9, sequence (P14780 94-707, species assumed): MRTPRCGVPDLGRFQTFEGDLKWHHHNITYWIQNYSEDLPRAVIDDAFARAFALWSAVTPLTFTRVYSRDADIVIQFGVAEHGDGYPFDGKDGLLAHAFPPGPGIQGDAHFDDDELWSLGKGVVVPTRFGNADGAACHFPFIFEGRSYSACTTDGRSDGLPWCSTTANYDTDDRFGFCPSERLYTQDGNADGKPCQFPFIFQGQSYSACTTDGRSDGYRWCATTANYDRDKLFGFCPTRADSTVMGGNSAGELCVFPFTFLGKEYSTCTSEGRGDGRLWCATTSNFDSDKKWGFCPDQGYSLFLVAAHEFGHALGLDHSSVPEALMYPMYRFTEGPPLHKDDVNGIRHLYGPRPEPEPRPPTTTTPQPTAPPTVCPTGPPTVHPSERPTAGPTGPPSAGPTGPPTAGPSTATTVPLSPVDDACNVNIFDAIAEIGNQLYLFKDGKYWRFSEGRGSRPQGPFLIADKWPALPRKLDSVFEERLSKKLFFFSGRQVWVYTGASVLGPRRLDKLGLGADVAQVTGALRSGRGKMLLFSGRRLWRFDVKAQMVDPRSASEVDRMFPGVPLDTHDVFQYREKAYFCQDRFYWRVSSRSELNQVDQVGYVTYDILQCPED
MMP12, sequence (P39900 106-470, species assumed): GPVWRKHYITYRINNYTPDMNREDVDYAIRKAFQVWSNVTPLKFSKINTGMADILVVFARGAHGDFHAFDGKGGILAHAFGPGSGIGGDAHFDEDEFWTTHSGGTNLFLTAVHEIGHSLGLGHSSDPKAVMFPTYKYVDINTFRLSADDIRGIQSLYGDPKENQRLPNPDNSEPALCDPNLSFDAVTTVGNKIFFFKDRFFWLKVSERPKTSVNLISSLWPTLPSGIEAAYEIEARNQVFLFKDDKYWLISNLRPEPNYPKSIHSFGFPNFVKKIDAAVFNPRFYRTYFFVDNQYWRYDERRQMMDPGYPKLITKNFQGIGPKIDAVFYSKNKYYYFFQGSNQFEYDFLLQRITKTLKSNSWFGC
TACE (TNF-α-converting enzyme), sequence (P78536 215-824, species assumed): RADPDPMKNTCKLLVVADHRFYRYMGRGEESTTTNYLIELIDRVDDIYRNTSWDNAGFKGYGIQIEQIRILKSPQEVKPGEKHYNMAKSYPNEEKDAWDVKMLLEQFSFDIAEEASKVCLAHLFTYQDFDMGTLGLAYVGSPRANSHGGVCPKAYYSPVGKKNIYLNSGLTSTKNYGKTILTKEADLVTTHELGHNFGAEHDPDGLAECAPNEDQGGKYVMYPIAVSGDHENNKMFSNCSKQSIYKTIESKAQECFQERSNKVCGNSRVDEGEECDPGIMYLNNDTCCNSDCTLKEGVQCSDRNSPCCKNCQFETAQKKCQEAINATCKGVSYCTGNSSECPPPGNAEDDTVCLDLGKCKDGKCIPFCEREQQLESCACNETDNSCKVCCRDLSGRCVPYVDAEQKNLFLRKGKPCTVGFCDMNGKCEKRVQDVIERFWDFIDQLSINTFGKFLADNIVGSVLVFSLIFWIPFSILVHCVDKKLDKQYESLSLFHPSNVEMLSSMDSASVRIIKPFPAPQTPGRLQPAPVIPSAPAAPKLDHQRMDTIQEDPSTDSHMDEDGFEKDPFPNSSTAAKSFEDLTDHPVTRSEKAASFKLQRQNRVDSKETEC

## CC1(C)NC(=O)N(C[C@@H](COc2ccc(-c3ccc(OC(F)(F)F)cc3)cc2)N(O)C=O)C1=O [ABT-770]
MMP2
  inhibition of MMP2 (in words): inhibits
MMP9
  inhibition of MMP9 (in words): inhibits

## CNC(=O)[C@H](Cc1ccccc1)NC(=O)[C@H](CC(C)C)[C@H](CSc1cccs1)C(=O)NO [Batimastat]
MMP9
  IC50: 1 nM
MMP7
  IC50: 6 nM

## 7-dimethylamino-6-dimethyl-6-deoxytetracycline [Minocycline]
MMP2
  inhibition of MMP2 (in words): effective for the inhibition
MMP3
  IC50: 290000 nM
MMP9
  IC50: 180000 nM
MMP7
  IC50: 125000 nM
MMP1
  inhibition of MMP1 (in words): effective for the inhibition

## CCN(CC)Cc1cc(C)c(N(Cc2ccccc2)S(=O)(=O)c2ccc(OC)cc2)c(C(=O)NO)c1 [MMP9 inhibitor I]
MMP1
  IC50: 1.05 nM

## C=CCN(C(=O)CCC(=O)N(O)CC(C)C)C(Cc1ccccc1)C(=O)NC (stereo not drawn) [BB-1101]
MMP13
  IC50: 7 nM
MMP2
  IC50: 4 nM
MMP12
  IC50: 5 nM
MMP3
  IC50: 30 nM
MMP14
  IC50: 10 nM
MMP9
  IC50: 3 nM
MMP7
  IC50: 60 nM
MMP8; [2]
  IC50: 3 nM
MMP1
  IC50: 8 nM

## O=C(NO)C1(CS(=O)(=O)c2ccc(Oc3ccc(Cl)cc3)cc2)CCOCC1 [RS 130830]
MMP1
  inhibition of MMP1 (in words): suppress

## COc1ccc(S(=O)(=O)N(Cc2cccnc2)[C@@H](C(=O)NO)C(C)C)cc1.Cl [MMI-270]
MMP2
  inhibition of MMP2 (in words): can inhibit
MMP9
  inhibition of MMP9 (in words): can inhibit
MMP8
  inhibition of MMP8 (in words): can inhibit

## CC1(C)SCCN(S(=O)(=O)c2ccc(Oc3ccncc3)cc2)[C@H]1C(=O)NO [Prinomastat]
MMP3
  inhibition of MMP3 (in words): specific selectivity
MMP14
  inhibition of MMP14 (in words): specific selectivity
MMP9
  inhibition of MMP9 (in words): specific selectivity

## C[C@H]1c2cccc(O)c2C(=O)C2=C(O)[C@]3(O)C(=O)C(C(N)=O)=C(O)[C@@H](N(C)C)[C@@H]3[C@@H](O)[C@@H]21 [Doxycycline]
MMP13
  IC50: 2000 to 50000 nM
MMP2
  IC50: 56000 nM
MMP3
  IC50: 32000 nM
MMP7
  IC50: 28000 nM
MMP8; [2]
  IC50: 26000 to 50000 nM
MMP1
  IC50: > 400000 nM

## O=C1NC(=O)C(c2ccc(-c3ccccc3)cc2)(N2CCN(c3ccc([N+](=O)[O-])cc3)CC2)C(=O)N1 [Ro 28-2653]
MMP2
  IC50: 7 to 246 nM
MMP9
  IC50: 12 to 23 nM
MMP8; read-out: IC50 MMP8
  IC50: 15 nM

## NC(=O)C1=C(O)CC2CC3Cc4cccc(O)c4C(=O)C3=C(O)C2(O)C1=O (stereo not drawn) [COL-3]
MMP13
  IC50: 808 nM
MMP8; [2]
  IC50: 129000 nM
MMP1
  IC50: 91600 nM

## CC(C)C[C@@H](NC(=O)[C@@H]1CCCN1C(=O)CNC(=O)c1ccc(N)cc1)C(=O)N[C@H](C)C(=O)NO [FN-439, p-aminobenzoyl-Gly-Pro-D-Leu-D-Ala-NHOH] (H-[4Abz]GP[dL][dA]-{NHOH})
MMP3
  IC50: 150000 nM
MMP9
  IC50: 30000 nM
MMP8; [2]
  IC50: 1000 nM
MMP1
  IC50: 1000 nM

## CN1C(=O)N(C[C@H](C(=O)NO)[C@@H](CC2CCCC2)C(=O)N2CCCCC2)C(=O)C1(C)C [Cipemastat]
MMP3
  inhibition of MMP3 (in words): can inhibit
MMP9
  inhibition of MMP9 (in words): can inhibit
MMP1
  inhibition of MMP1 (in words): can inhibit

## TIMP-1: endogenous tissue inhibitor of metalloproteinases; extensively glycosylated protein with a molecular mass of 28.5 kDa
MMP8
  inhibition of MMP8 (in words): preferentially inhibits
MMPs
  inhibition of MMPs in general (in words): inhibit most MMPs (except MMP-2 and -14)

## CNC(=O)[C@@H](NC(=O)[C@H](CC(C)C)[C@H](O)C(=O)NO)C(C)(C)C [Marimastat]
MMP14
  IC50: 1.8 nM

## CCOCOCC(CC(C)C(=O)NO)NC(=O)c1ccc(Oc2ccccc2)cc1 (stereo not drawn) [ONO-4817]
MMP13
  Ki: 1.1 nM
MMP2
  Ki: 0.73 nM
MMP12
  Ki: 0.45 nM
MMP3
  Ki: 42 nM
MMP9
  IC50: 2.1 nM
MMP7
  Ki: 2.5 nM
MMP8
  Ki: 1.1 nM
MMP1
  IC50: 1.6 nM

## O=C(NO)C1(S(=O)(=O)c2ccc(Oc3ccc(Cl)cc3)cc2)CCN(Cc2ccccc2)CC1 [239796-97-5]
MMP1
  inhibition of MMP1 (in words): suppress

B1: TIMP-4: endogenous tissue inhibitor of metalloproteinases, secreted predominantly in heart and brain tissue (protein, UniProt Q99727 30-224, looked up)
Metalloproteinase inhibitor 4: CSCAPAHPQQHICHSALVIRAKISSEKVVPASADPADTEKMLRYEIKQIKMFKGFEKVKDVQYIYTPFDSSLCGVKLEANSQKQYLLTGQVLSDGKVFIHLCNYIEPWEDLSLVQRESLNHHYHLNCGCQITTCYTVPCTISAPNECLWTDWLLERKLYGYQAQHYVCMKHVDGTCSWYRGHLPLRKEFVDIVQP
MMP2
  inhibition of MMP2 (in words): preferentially inhibits
MMP7
  inhibition of MMP7 (in words): preferentially inhibits
MMPs
  inhibition of MMPs in general (in words): inhibits all known MMPs

B2: TIMP-3: endogenous tissue inhibitor of metalloproteinases, typically bound to the ECM (protein, UniProt P35625 24-211, looked up)
Metalloproteinase inhibitor 3: CTCSPSHPQDAFCNSDIVIRAKVVGKKLVKEGPFGTLVYTIKQMKMYRGFTKMPHVQYIHTEASESLCGLKLEVNKYQYLLTGRVYDGKMYTGLCNFVERWDQLTLSQRKGLNYRYHLGCNCKIKSCYYLPCFVTSKNECLWTDMLSNFGYPGYQSKHYACIRQKGGYCSWYRGWAPPDKSIINATDP
MMP13
  inhibition of MMP13 (in words): inhibits the activity
MMP2
  inhibition of MMP2 (in words): inhibits the activity
MMP3
  inhibition of MMP3 (in words): inhibits the activity
[1]
  inhibition of TACE (in words): normally inhibits
MMP9
  inhibition of MMP9 (in words): inhibits the activity
MMP1
  inhibition of MMP1 (in words): inhibits the activity
